Assay results taken from paper PMC10470521, “Structural basis of a bi-functional malonyl-CoA reductase (MCR) from the photosynthetic green non-sulfur bacterium Roseiflexus castenholzii” (mBio, 2023).
Blank lines part the entries; values can stand above or below the compound they belong to.

Columns and labels:
RfxMCR-C = target: T1, RfxMCR-C (Roseiflexus castenholzii, UniProt A7NN59); assay: X-ray crystal structure, […] Å; assay type: binding; conditions: SDR3 / ED interface
T1 construct: gene Rcas_2929; C-terminal fragment Gly573-Val1229 (SDR3-ED-SDR4), N-terminal His6 tag (pET28a), E. coli BL21(DE3)
T1 sequence (A7NN59 entry or part of it): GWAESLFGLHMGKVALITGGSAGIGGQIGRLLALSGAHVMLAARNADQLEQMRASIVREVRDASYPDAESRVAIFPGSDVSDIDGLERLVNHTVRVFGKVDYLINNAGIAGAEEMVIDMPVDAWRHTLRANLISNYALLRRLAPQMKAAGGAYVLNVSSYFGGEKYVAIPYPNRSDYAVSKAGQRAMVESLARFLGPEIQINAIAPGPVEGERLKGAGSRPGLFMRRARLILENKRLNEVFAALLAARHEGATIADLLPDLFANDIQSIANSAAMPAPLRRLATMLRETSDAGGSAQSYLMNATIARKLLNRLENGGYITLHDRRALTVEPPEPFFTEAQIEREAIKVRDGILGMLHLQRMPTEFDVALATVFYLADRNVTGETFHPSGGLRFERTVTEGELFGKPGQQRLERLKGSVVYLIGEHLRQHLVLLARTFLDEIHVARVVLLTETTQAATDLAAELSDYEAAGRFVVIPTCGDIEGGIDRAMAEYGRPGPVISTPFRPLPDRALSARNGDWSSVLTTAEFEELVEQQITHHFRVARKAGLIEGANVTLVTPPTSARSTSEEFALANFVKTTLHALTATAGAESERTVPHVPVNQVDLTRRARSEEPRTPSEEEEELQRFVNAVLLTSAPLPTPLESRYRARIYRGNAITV

full-length RfxMCR [1] = target: T2, full-length RfxMCR (Roseiflexus castenholzii, UniProt A7NN59, Y749A); assay: NADPH oxidation at […] nm; assay type: biochemical; conditions: 0.4 mM NADPH, 5 mM MgCl2, 100 mM Tris-HCl pH 8.0, 150 mM NaCl, 50°C; apparent; overall two-step reduction
T2 construct: gene Rcas_2929; full length Met1-Val1229, C-terminal His6 tag (pET20b), E. coli BL21(DE3); homodimer ~270 kDa
T2 sequence (A7NN59 entry or part of it Y749A): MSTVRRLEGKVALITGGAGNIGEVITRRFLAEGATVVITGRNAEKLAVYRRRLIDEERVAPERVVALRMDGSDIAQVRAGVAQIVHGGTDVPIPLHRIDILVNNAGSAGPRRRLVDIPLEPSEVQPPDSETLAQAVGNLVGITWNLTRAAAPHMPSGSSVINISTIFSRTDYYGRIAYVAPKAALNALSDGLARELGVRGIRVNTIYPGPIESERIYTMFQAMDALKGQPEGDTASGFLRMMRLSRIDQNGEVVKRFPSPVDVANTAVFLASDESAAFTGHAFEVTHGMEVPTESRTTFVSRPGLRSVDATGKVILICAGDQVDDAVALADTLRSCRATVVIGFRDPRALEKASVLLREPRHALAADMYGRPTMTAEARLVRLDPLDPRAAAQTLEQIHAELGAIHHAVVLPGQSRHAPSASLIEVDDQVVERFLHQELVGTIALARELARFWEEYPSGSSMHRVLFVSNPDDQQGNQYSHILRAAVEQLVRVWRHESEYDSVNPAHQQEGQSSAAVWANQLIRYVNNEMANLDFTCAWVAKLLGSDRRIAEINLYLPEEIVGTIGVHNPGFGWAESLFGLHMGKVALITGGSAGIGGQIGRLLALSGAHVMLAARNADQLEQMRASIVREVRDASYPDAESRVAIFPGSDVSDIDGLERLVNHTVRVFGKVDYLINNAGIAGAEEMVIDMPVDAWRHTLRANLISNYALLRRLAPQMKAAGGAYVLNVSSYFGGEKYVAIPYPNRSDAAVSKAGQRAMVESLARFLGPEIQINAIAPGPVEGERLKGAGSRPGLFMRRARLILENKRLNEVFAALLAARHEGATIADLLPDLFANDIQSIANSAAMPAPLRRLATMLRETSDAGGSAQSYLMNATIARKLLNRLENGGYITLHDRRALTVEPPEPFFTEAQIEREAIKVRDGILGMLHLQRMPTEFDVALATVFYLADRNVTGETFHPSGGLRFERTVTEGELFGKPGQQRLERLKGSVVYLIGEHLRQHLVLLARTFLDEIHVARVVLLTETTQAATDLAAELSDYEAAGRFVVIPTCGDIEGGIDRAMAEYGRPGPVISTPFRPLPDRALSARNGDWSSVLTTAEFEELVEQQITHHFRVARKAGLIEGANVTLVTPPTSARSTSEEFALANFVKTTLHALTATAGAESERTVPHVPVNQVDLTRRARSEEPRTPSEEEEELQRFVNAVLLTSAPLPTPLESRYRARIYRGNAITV

full-length RfxMCR [2] = target: T3, full-length RfxMCR (Roseiflexus castenholzii, UniProt A7NN59, L795A); assay: NADPH oxidation at […] nm; assay type: biochemical; conditions: 0.4 mM NADPH, 5 mM MgCl2, 100 mM Tris-HCl pH 8.0, 150 mM NaCl, 50°C; apparent; overall two-step reduction
T3 construct: gene Rcas_2929; full length Met1-Val1229, C-terminal His6 tag (pET20b), E. coli BL21(DE3); homodimer ~270 kDa

full-length RfxMCR [3] = target: T4, full-length RfxMCR (Roseiflexus castenholzii, UniProt A7NN59, S731A); assay: NADPH oxidation at […] nm; assay type: biochemical; conditions: 0.4 mM NADPH, 5 mM MgCl2, 100 mM Tris-HCl pH 8.0, 150 mM NaCl, 50°C; apparent; overall two-step reduction; SDR3 site
T4 construct: gene Rcas_2929; full length Met1-Val1229, C-terminal His6 tag (pET20b), E. coli BL21(DE3); homodimer ~270 kDa

full-length RfxMCR [4] = target: T5, full-length RfxMCR (Roseiflexus castenholzii, UniProt A7NN59, K182A); assay: NADPH oxidation at […] nm; assay type: biochemical; conditions: 0.4 mM NADPH, 5 mM MgCl2, 100 mM Tris-HCl pH 8.0, 150 mM NaCl, 50°C; apparent; overall two-step reduction
T5 construct: gene Rcas_2929; full length Met1-Val1229, C-terminal His6 tag (pET20b), E. coli BL21(DE3); homodimer ~270 kDa

full-length RfxMCR [5] = target: T6, full-length RfxMCR (Roseiflexus castenholzii, UniProt A7NN59, Y178A); assay: NADPH oxidation at […] nm; assay type: biochemical; conditions: 0.4 mM NADPH, 5 mM MgCl2, 100 mM Tris-HCl pH 8.0, 150 mM NaCl, 50°C; apparent; overall two-step reduction
T6 construct: gene Rcas_2929; full length Met1-Val1229, C-terminal His6 tag (pET20b), E. coli BL21(DE3); homodimer ~270 kDa

full-length RfxMCR [6] = target: T7, full-length RfxMCR (Roseiflexus castenholzii, UniProt A7NN59, T165A); assay: NADPH oxidation at […] nm; assay type: biochemical; conditions: 0.4 mM NADPH, 5 mM MgCl2, 100 mM Tris-HCl pH 8.0, 150 mM NaCl, 50°C; apparent; overall two-step reduction; SDR1 site (second step, MSA to 3-HP)
T7 construct: gene Rcas_2929; full length Met1-Val1229, C-terminal His6 tag (pET20b), E. coli BL21(DE3); homodimer ~270 kDa

full-length RfxMCR [7] = target: T8, full-length RfxMCR (Roseiflexus castenholzii, UniProt A7NN59, K753A); assay: NADPH oxidation at […] nm; assay type: biochemical; conditions: 0.4 mM NADPH, 5 mM MgCl2, 100 mM Tris-HCl pH 8.0, 150 mM NaCl, 50°C; apparent; overall two-step reduction
T8 construct: gene Rcas_2929; full length Met1-Val1229, C-terminal His6 tag (pET20b), E. coli BL21(DE3); homodimer ~270 kDa
T8 sequence (A7NN59 entry or part of it K753A): as the sequence (A7NN59 entry or part of it Y749A) above, with A749Y, K753A counted along it

full-length RfxMCR [8] = target: T9, full-length RfxMCR (Roseiflexus castenholzii, UniProt A7NN59, R746A); assay: NADPH oxidation at […] nm; assay type: biochemical; conditions: 0.4 mM NADPH, 5 mM MgCl2, 100 mM Tris-HCl pH 8.0, 150 mM NaCl, 50°C; apparent; overall two-step reduction; SDR3 site
T9 construct: gene Rcas_2929; full length Met1-Val1229, C-terminal His6 tag (pET20b), E. coli BL21(DE3); homodimer ~270 kDa
T9 sequence (A7NN59 entry or part of it R746A): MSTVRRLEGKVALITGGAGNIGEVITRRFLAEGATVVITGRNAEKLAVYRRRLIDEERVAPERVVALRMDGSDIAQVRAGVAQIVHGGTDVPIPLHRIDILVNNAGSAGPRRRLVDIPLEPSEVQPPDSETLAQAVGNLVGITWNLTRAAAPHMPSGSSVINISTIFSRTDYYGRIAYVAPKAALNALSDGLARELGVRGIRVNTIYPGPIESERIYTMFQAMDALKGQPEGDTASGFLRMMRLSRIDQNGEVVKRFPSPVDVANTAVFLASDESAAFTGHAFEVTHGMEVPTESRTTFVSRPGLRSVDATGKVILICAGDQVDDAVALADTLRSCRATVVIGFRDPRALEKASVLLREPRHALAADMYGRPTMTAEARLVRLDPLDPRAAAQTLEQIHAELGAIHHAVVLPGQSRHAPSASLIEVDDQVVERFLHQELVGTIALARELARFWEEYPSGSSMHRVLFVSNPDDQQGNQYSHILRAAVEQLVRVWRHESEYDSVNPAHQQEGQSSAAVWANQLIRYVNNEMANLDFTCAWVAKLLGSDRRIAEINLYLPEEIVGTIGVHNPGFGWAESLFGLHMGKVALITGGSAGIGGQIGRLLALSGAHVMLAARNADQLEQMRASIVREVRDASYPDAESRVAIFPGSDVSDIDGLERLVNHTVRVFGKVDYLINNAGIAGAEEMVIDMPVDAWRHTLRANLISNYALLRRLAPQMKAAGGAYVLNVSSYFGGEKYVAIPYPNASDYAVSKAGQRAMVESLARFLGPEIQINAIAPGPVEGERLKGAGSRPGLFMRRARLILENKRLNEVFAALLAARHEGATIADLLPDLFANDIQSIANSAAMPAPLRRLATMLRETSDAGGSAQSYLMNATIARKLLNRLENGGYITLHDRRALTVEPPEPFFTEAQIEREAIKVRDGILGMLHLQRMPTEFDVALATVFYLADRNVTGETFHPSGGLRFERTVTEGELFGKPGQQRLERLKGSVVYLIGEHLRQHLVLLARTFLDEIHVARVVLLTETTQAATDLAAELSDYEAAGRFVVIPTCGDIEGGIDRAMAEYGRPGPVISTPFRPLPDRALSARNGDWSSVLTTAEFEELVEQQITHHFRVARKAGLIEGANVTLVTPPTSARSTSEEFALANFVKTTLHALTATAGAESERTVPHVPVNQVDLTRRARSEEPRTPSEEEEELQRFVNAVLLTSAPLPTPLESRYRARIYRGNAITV

full-length RfxMCR [9] = target: T10, full-length RfxMCR (Roseiflexus castenholzii, UniProt A7NN59, R785A); assay: NADPH oxidation at […] nm; assay type: biochemical; conditions: 0.4 mM NADPH, 5 mM MgCl2, 100 mM Tris-HCl pH 8.0, 150 mM NaCl, 50°C; apparent; overall two-step reduction; extra domain
T10 construct: gene Rcas_2929; full length Met1-Val1229, C-terminal His6 tag (pET20b), E. coli BL21(DE3); homodimer ~270 kDa
T10 sequence (A7NN59 entry or part of it R785A): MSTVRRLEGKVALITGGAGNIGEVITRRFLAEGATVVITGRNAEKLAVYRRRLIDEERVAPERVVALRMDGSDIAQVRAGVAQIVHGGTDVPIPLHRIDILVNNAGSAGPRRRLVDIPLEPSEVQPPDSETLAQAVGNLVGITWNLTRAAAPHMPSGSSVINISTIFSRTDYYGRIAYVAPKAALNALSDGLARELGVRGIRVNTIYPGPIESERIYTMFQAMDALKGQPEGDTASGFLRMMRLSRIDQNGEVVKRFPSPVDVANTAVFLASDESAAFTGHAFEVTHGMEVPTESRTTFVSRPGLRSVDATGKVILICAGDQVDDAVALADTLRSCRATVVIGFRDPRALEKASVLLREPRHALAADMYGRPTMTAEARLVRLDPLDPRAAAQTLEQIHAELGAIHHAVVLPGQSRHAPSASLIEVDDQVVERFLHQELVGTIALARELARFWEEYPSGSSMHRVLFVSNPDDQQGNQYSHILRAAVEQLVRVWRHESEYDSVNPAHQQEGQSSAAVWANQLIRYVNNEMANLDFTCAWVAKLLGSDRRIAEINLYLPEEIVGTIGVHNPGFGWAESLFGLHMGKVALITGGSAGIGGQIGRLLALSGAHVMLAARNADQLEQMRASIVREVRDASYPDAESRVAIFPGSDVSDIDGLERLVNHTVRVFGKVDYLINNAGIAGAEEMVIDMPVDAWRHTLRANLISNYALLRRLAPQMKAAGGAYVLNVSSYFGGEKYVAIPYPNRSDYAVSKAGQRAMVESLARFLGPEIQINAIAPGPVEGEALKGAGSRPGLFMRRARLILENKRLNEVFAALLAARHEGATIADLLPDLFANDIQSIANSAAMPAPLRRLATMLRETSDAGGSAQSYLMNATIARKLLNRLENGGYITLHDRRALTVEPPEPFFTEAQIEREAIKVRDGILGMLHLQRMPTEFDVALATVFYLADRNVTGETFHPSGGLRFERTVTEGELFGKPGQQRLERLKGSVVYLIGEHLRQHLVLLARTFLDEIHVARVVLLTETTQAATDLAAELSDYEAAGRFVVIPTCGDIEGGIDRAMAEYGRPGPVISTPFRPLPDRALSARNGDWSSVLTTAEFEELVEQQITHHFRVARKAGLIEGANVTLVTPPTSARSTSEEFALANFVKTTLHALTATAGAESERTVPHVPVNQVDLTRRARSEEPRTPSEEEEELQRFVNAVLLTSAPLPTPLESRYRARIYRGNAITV

full-length RfxMCR [10] = target: T11, full-length RfxMCR (Roseiflexus castenholzii, UniProt A7NN59, R799A); assay: NADPH oxidation at […] nm; assay type: biochemical; conditions: 0.4 mM NADPH, 5 mM MgCl2, 100 mM Tris-HCl pH 8.0, 150 mM NaCl, 50°C; apparent; overall two-step reduction; extra domain
T11 construct: gene Rcas_2929; full length Met1-Val1229, C-terminal His6 tag (pET20b), E. coli BL21(DE3); homodimer ~270 kDa
T11 sequence (A7NN59 entry or part of it R799A): as the sequence (A7NN59 entry or part of it Y749A) above, with A749Y, R799A counted along it

RfxMCR-N = target: T12, RfxMCR-N (Roseiflexus castenholzii, UniProt A7NN59); assay: X-ray crystal structure, […] Å; assay type: binding; conditions: ternary complex with NADP+; SDR1 site; MSA not added, modelled in extra density; crystals grown in 1 M sodium malonate pH 5.0
T12 construct: gene Rcas_2929; N-terminal fragment Met1-Phe572 (SDR1-SDR2), C-terminal His6 tag (pET28a), E. coli BL21(DE3)
T12 sequence (A7NN59 entry or part of it): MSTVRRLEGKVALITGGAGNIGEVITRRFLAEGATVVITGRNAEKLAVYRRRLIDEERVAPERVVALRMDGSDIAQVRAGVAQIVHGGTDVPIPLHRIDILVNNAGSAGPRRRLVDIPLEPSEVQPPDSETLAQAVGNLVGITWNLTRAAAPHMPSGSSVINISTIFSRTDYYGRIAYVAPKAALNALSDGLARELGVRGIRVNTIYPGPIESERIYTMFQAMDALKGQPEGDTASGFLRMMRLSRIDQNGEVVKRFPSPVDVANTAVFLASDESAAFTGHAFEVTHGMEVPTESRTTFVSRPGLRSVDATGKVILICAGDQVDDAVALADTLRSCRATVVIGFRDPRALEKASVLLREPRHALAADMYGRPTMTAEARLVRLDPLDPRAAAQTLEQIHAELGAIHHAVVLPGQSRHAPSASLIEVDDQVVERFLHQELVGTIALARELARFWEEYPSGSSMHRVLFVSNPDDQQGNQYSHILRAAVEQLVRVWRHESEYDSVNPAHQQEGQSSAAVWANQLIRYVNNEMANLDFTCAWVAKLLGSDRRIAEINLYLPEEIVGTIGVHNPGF

[11] = target: RfxMCR-C (Gly573-Val1229) (Roseiflexus castenholzii DSM 13941) (UniProt A7NN59); assay: crystal structure; RfxMCR-C with NADP+ and MSA; 1.6 M sodium formate, 0.1 M Bis-tris propane pH 7.0, 16°C; P6(5)22, dimer by crystal packing; 2.3 Å

Compound: NC(=O)c1ccc[n+]([C@@H]2O[C@H](COP(=O)(O)OP(=O)(O)OC[C@H]3O[C@@H](n4cnc5c(N)ncnc54)[C@H](OP(=O)(O)O)[C@@H]3O)[C@@H](O)[C@H]2O)c1 [NADP^+]
X-ray crystal structure, 2.3 Å (RfxMCR-C; ternary complex with MSA): a cofactor NADP^+ and intermediate MSA were resolved at the interface between the SDR3

Compound: CC(C)(COP(=O)(O)OP(=O)(O)OC[C@H]1O[C@@H](n2cnc3c(N)ncnc32)[C@H](O)[C@@H]1OP(=O)(O)O)[C@@H](O)C(=O)NCCC(=O)NCCSC(=O)CC(=O)O [malonyl-CoA]
overall enzymatic activity (full-length RfxMCR [1]): Ser731, Tyr749, Lys753, and Arg799 completely eliminated enzymatic activity | overall enzymatic activity (full-length RfxMCR [2]): mutagenesis of Arg746, Arg785, and Leu795 | overall enzymatic activity (full-length RfxMCR [3]): Ser731, Tyr749, Lys753, and Arg799 completely eliminated enzymatic activity | overall enzymatic activity (full-length RfxMCR [4]): Site-directed mutation of Thr165, Tyr172, Arg175, Tyr178, and Lys182 to Ala residues | overall enzymatic activity (full-length RfxMCR [5]): Site-directed mutation of Thr165, Tyr172, Arg175, Tyr178, and Lys182 to Ala residues | overall enzymatic activity (full-length RfxMCR [6]): Site-directed mutation of Thr165, Tyr172, Arg175, Tyr178, and Lys182 to Ala residues | overall enzymatic activity (full-length RfxMCR [7]): Ser731, Tyr749, Lys753, and Arg799 completely eliminated enzymatic activity | overall enzymatic activity (full-length RfxMCR [8]): mutagenesis of Arg746, Arg785, and Leu795 | overall enzymatic activity (full-length RfxMCR [9]): mutagenesis of Arg746, Arg785, and Leu795 | overall enzymatic activity (full-length RfxMCR [10]): Ser731, Tyr749, Lys753, and Arg799 completely eliminated enzymatic activity

Compound: O=CCC(=O)O [malonate semialdehyde]
X-ray crystal structure, 2.3 Å (RfxMCR-C; ternary complex with NADP+, MSA not added, modelled in density): a cofactor NADP^+ and intermediate MSA were resolved at the interface between the SDR3 | X-ray crystal structure, 2.0 Å (RfxMCR-N): extra electron density that precisely matched the reduction intermediate MSA

stoichiometry N [11]: 2
Compound: RfxMCR-C (Gly573-Val1229) (from UniProt A7NN59 573-1229) (domain or fragment)
